Assay results published in US12617757B2, “Compounds and modules for inhibition of pre-miR-21 and their use in treatment of certain cancers” (University of Florida Research Foundation, Incorporated, priority 2019, dated 2026).
Entries after “also recorded” stand apart in the source; their conditions may differ. Like-named read-outs stand apart in the source and are kept apart here.

Experiments:
pre-miR-21 = experiment: RT-qPCR of mature miR-21 and pre-miR-21 levels in MDA-MB-231 cells; type: cell-based, human; conditions: for period over which significantly decreased miR-21 levels were observed after a single dose: Formula 2 1000 nM, Formula 5 50 nM; for effect on mature miR-21 levels / effect on pre-miR-21 levels: MDA-MB-231, RT-qPCR; for effect on pre-miR-21 upon siRNA ablation of RNase L: 5 at 50 nM
Protocol: Cell culture compound treatment and transfection. For treatment with compounds, stocks in DMSO or water were diluted in growth media and added to cells for 24-72 h. For transfection of plasmid DNA to overexpress the miR-21 hairpin precursor in pcDNA3.1 (Addgene 21114) or pcDNA3-RNaseL (R. H. Silverman, Cleveland Clinic^24) in 24-well plates, Lipofectamine 2000 was used according to the manufacturer's protocol. After transfection, the medium was removed and replaced with growth medium containing compound prepared as described above. For transfection of a control (Santa Cruz Biotechnology: sc-37007) or RNase L targeting siRNA (Santa Cruz Biotechnology: sc-45965), Lipofectamine RNAiMAX Reagent was used for transfection of oligonucleotides, including 2′-5′ A4, according to the manufacturer's protocol.

PDCD4 = PDCD4 Western blot in MDA-MB-231 cells; type: cell-based, human; conditions: for effect on PDCD4 protein levels: Western blotting relative to β-actin
Protocol: PDCD4 Western blot: The MDA-MB-231 cells were grown to ˜60% confluency in 6-well plates. Cells were incubated with compounds diluted in growth media for 48 h. Total protein was extracted using M-PER Mammalian Protein Extraction Reagent (Pierce Biotechnology) supplemented with 1×Protease Inhibitor Cocktail III for Mammalian Cells (Research Products International Corp.) per the manufacturer's protocol. Total protein lysate was quantified using a Micro BCA Protein Assay Kit (Pierce Biotechnology). A 30 μg aliquot of total protein was resolved on a 10% Bis-Tris SDS-polyacrylamide gel, with a 5% stacking layer, and then transferred to a PVDF membrane. The membrane was then blocked in 5% (w/v) nonfat dry milk in 1×TBST for 1 h at room temperature. The membrane was then incubated with 1:2000 rabbit mAb PDCD4 primary antibody (Cell Signaling Technology: D29C6) in 1×TBST containing 5% nonfat dry milk overnight at 4° C. The membrane was washed five times for 5 min each with 1×TBST and then incubated with 1:5000 anti-rabbit IgG horseradish peroxidase secondary antibody conjugate (Cell Signaling Technology: 7074S) in 1×TBST containing 5% nonfat dry milk for 1 h at room temperature. After washing seven times for 5 min each with 1×TBST, protein levels were quantified by chemiluminescence using a SuperSignal West Pico Chemiluminescent Substrate (Pierce Biotechnology) per the manufacturer's recommendations. The membrane was stripped with 1×Stripping Buffer (200 mM glycine, pH 2.2, 1% Tween-20 and 0.1% SDS) two times for 5 min each, followed by washing 3 times in 1×TBST. Then, the membrane was blocked and probed for β-actin following the same procedure described above using 1:5000 mouse β-actin primary antibody (Cell Signaling Technology: 8H10D10). The membrane was washed five times with 1×TBST and incubated with 1:10000 anti-mouse IgG horseradish-peroxidase secondary antibody conjugate (Cell Signaling Technology: 7076S). After washing seven times with 1×TBST for 5 min each, protein levels were quantified as described above. ImageJ software was used to quantify band intensities.

MDA-MB-231 cells = experiment: Boyden chamber invasion assay, MDA-MB-231; type: cell-based, human; conditions: for effect on invasion: MDA-MB-231, LNA-21 100 nM, 2 1000 nM; for effect on invasion upon transient expression of pre-miR-21: MDA-MB-231 + pre-miR-21
Protocol: (§1) Boyden Chamber Invasion Assay. The MDA-MB-231, MDA-LM2, A375, A549, or MCF-10a cells (5×10^4) were seeded into Hanging Cell Culture Inserts for 24 well plates with uncoated membranes with 8.0 μm pores (Millicell) in serum free growth media. A 3 mg/mL layer (100 μL) of Matrigel (Fisher Scientific: CB40234) diluted with serum free growth media was prepared inside of each membrane. Cells were cultured as described above, with or without compound treatment, and allowed to invade towards complete growth media in the bottom well for 16-24 h before ending the experiment by removing the media in the bottom wells and inserts. The hanging cell culture inserts and bottom wells were washed twice with 1×PBS, gently shaking to mix. Excess liquid and cells inside the insert were removed with cotton swabs, after which 400 μL of 4% paraformaldehyde was placed into the bottom well and incubated for 20 min at room temperature to fix the cells. The wells and inserts were washed twice with 1×PBS and then treated with 400 μL of 0.1% crystal violet solution for 20 min at room temperature to stain the cells. The wells and inserts were washed twice with water, followed by one wash with 1×PBS. Inserts were dried with cotton swabs to remove extra stain and cells inside the insert, then were air-dried, followed by Brightfield microscopic analysis using a Leica DMI3000 B upright fluorescent microscope. Four different fields of view from each captured image were counted for crystal violet stained or unstained cells. Normalized cells invaded was calculated with equation 5 (Eq 5): […]
(§2) where stained cells represent cells counted with crystal violet stain observed in the compound treated or vehicle treated samples, respectively.

A549 cells = experiment: Boyden chamber invasion assay, A549; type: cell-based; conditions: LNA-21 100 nM, 2 1000 nM
Protocol: as §1, with “The wells and inserts were washed twice with 1×PBS and then treated with 400 μL of 0.1% crystal violet solution for 20 min at room temperature to stain the cells. The wells and inserts were washed twice with water, followed by one wash with 1×PBS. Inserts were dried with cotton swabs to remove extra stain and cells inside the insert, then were air-dried, followed by Brightfield microscopic analysis using a Leica DMI3000 B upright fluorescent microscope.” left out
as §2

A375 cells = experiment: Boyden chamber invasion assay, A375; type: cell-based; conditions: LNA-21 100 nM, 2 1000 nM
Protocol: as §1, with “The wells and inserts were washed twice with 1×PBS and then treated with 400 μL of 0.1% crystal violet solution for 20 min at room temperature to stain the cells. The wells and inserts were washed twice with water, followed by one wash with 1×PBS. Inserts were dried with cotton swabs to remove extra stain and cells inside the insert, then were air-dried, followed by Brightfield microscopic analysis using a Leica DMI3000 B upright fluorescent microscope.” left out
as §2

[1] = system: miR-21 in various cancer cell lines; experiment: RT-qPCR of mature miR-21 in various cancer cell lines; type: cell-based

CCCN(CC(=O)N(CCC)CC(=O)N(CCC)CC(=O)N(CC(N)=O)Cc1cn(CCCNC(=O)CCCOc2ccc(-c3nc4cc(-c5ccc(N6CCN(C)CC6)cc5)ccc4[nH]3)cc2)nn1)C(=O)CNCc1cn(CCCNC(=O)CCCOc2ccc(-c3nc4cc(-c5ccc(N6CCN(C)CC6)cc5)ccc4[nH]3)cc2)nn1 [Compound 2]
period over which significantly decreased miR-21 levels were observed after a single dose (pre-miR-21; MDA-MB-231): 48 h
effect on mature miR-21 levels (pre-miR-21): decreased miR-21 levels; also recorded: decreases mature miR-21 levels
effect on pre-miR-21 levels (pre-miR-21): increased pre-miR-21 levels; also recorded: boosted levels of pre-miR 21
IC50 (pre-miR-21; MDA-MB-231, read-out: IC50, affecting pre-miR-21 in cells): 1000 nM
increase of PDCD4 levels (PDCD4; 1 μM, MDA-MB-231): ~50%
effect on PDCD4 protein levels (PDCD4): de-repress levels of PDCD4 protein
effect on invasion (MDA-MB-231 cells): decreased the invasive phenotype
effect on invasion (MDA-MB-231 cells; listed as Formula 2): inhibited the invasive properties of MDA-MB-231
effect on invasion (A549 cells): decreased the invasive phenotype
effect on invasion (A375 cells): decreased the invasive phenotype
effect on mature miR-21 levels [1]: silenced miR-21

CCCN(CC(=O)N(CCC)CC(=O)N(CCC)CC(=O)N(CC(=O)NCCOCCOCCOCCOc1ccc(C=C2SC(Nc3ccccc3)=C(C(=O)OCC)C2=O)cc1O)Cc1cn(CCCNC(=O)CCCOc2ccc(-c3nc4cc(-c5ccc(N6CCN(C)CC6)cc5)ccc4[nH]3)cc2)nn1)C(=O)CN(Cc1cn(CCCNC(=O)CCCOc2ccc(-c3nc4cc(-c5ccc(N6CCN(C)CC6)cc5)ccc4[nH]3)cc2)nn1)C(C)=O [Compound 5]
effect on pre-miR-21 upon siRNA ablation of RNase L (pre-miR-21; MDA-MB-231): diminished effects
effect on pre-miR-21 upon siRNA ablation of RNase L (pre-miR-21; MDA-MB-231, listed as Formula 5): decreased the ability of Formula 5 to cleave pre-miR-21
period over which significantly decreased miR-21 levels were observed after a single dose (pre-miR-21; MDA-MB-231): 96 h
enhanced activity for affecting miR-21 levels over parent 2 (pre-miR-21; MDA-MB-231): 20 fold
potency of enzymatic cleavage versus bleomycin conjugate of 2 (pre-miR-21; MDA-MB-231): 10 fold
effect on mature miR-21 levels (pre-miR-21): decreased miR-21 levels
effect on pre-miR-21 levels (pre-miR-21): decreased pre-miR-21
effect on pre-miR-21 levels (pre-miR-21; listed as Formula 5): diminished
IC50 (pre-miR-21; MDA-MB-231, read-out: IC50, affecting miR-21 levels): ~50 nM
effect on PDCD4 protein levels (PDCD4): de-repress levels of PDCD4 protein
effect on invasion upon transient expression of pre-miR-21 (MDA-MB-231 cells): ablated
effect on invasion upon transient expression of pre-miR-21 (MDA-MB-231 cells; listed as Formula 5): ablated the inhibitory effect
effect on invasion (MDA-MB-231 cells): significant decrease of invasion
effect on invasion (MDA-MB-231 cells; listed as Formula 5): effectively inhibited invasion
effect on invasion (A549 cells; listed as Formula 5): decreased invasiveness
effect on invasion (A375 cells; listed as Formula 5): decreased invasiveness
effect on mature miR-21 levels [1]: decreased mature miR-21 levels
effect on mature miR-21 levels ([1]; listed as Formula 5): significantly inhibited miR-21 levels
